Reference: US11827628B2, “Compositions and methods for inhibition of the JAK pathway” (Rigel Pharmaceuticals, Inc., priority 2005, dated 2023)
Like-named read-outs stand apart in the source and are kept apart here.

Test system: Primary human T-cells
Assay: Primary Human T-Cell Proliferation Assay Stimulated with IL-2 (CellTiter-Glo)
Format: cell-based
Settings: read-out: IC50, Example 42
In short: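 Peripheral blood T-cells pre-activated with anti-CD3/anti-CD28 and IL-2 were washed free of IL-2, then cultured with compound plus IL-2 for 72 hours at 37° C, duplicate wells. Viability read as ATP by CellTiter-Glo luminescence; IC50 reported.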

[1] = Homo sapiens, T-cell, primary human T-cell proliferation stimulated with IL-2
[2] = primary human T-cells stimulated with IL-2, proliferation

| SMILES | IC50 [1] | IC50 [2] |
| --- | --- | --- |
| Cc1ccc(Nc2ncc(F)c(NCCc3ccc(-c4ccncc4)cc3)n2)cc1S(N)(=O)=O [III-77, N2-(3-Aminosulfonyl-4-methylphenyl)-5-fluoro-N4-[4-(4-pyridinyl)phenethyl]-2,4-pyrimidinediamine] | 210 nM |  |
| CN(C)C(=O)COc1ccc(Nc2nc(Nc3cccc(S(N)(=O)=O)c3)ncc2F)cc1Cl [Compound I-132, N2-(3-Aminosulfonylphenyl)-N4-(3-chloro-4-dimethylaminocarbonylmethoxyphenyl)-5-fluoro-2,4-pyrimidinediamine] | 464 nM |  |
| NS(=O)(=O)c1cccc(Nc2ncc(F)c(Nc3ccc(Oc4cccnc4)cc3)n2)c1 [II-11, N2-(3-Aminosulfonylphenyl)-5-fluoro-N4-[4-(3-pyridyloxy)phenyl]-2,4-pyrimidinediamine] | 198 nM |  |
| C=CCNC(=O)COc1ccc(Nc2nc(Nc3cccc(S(N)(=O)=O)c3)ncc2F)cc1 [Compound I-158, N4-(4-Allylaminocarbonylmethoxyphenyl)-N2-(3-aminosulfonylphenyl)-5-fluoro-2,4-pyrimidinediamine] | 445 nM |  |
| Cc1ccc(Nc2ncc(F)c(Nc3ccc(CCC#N)c(Cl)c3)n2)cc1S(N)(=O)=O [III-21, N2-(3-Aminosulfonyl-4-methylphenyl)-N4-[3-chloro-4-(2-cyanoethyl)phenyl]-5-fluoro-2,4-pyrimidinediamine] | 114 nM |  |
| NS(=O)(=O)c1cccc(Nc2ncc(F)c(Nc3ccc(Cn4cncn4)cc3)n2)c1 [III-100, N2-(3-Aminosulfonylphenyl)-5-fluoro-N4-{4-[1-(1,2,4-thazolyl)methyl]phenyl}-2,4-pyrimidinediamine] |  | 197 nM |
| CNC(=O)COc1ccc(Nc2nc(Nc3cccc(S(N)(=O)=O)c3)ncc2C)cc1F [Compound I-155, N2-(3-Aminosulfonylphenyl)-N4-(3-fluoro-4-methylaminocarbonylmethoxyphenyl)-5-methyl-2,4-pyrimidinediamine] | 99.3 nM |  |
| COc1cc(Nc2nc(Nc3cccc(S(N)(=O)=O)c3)ncc2F)ccc1OCC#N [Compound I-46, N2-(3-Aminosulfonylphenyl)-N4-(4-cyanomethoxy-3-methoxyphenyl)-5-fluoro-2,4-pyrimidinediamine] | 409 nM |  |
| NS(=O)(=O)c1cccc(Nc2ncc(F)c(Nc3ccc(CN4CCS(=O)(=O)CC4)cc3)n2)c1 [III-110, N2-(3-Aminosulfonylphenyl)-5-fluoro-N4-{4-[(1,1-dioxothiomorpholin-4-yl-)methyl]phenyl}-2,4-pyrimidinediamine] |  | 998 nM |
| Cc1ccc(Nc2ncc(F)c(Nc3ccc(CCOC(N)=O)cc3)n2)cc1S(N)(=O)=O [III-53, N4-{4-[2-(Aminocarbonyloxy)ethyl]phenyl}-N2-(3-aminosulfonyl-4-methylphenyl)-5-fluoro-2,4-pyrimidinediamine] | 286 nM |  |
| N#CCOc1ccc(Nc2nc(Nc3ccc(S(N)(=O)=O)cc3)ncc2F)cc1-c1ccn(CC#N)n1 [Compound I-52, N2-(4-Aminosulfonylphenyl)-N4-[4-cyanomethoxy-3-(1-cyanomethylpyrazol-3-yl)phenyl]-5-fluoro-2,4-pyrimidinediamine] | 5300 nM |  |
| Cc1ccc(Nc2ncc(F)c(Nc3ccc(OCC#N)c(CO)c3)n2)cc1S(N)(=O)=O [Compound I-51, N2-(3-Aminosulfonyl-4-methylphenyl)-N4-(4-cyanomethoxy-3-hydroxymethylphenyl)-5-fluoro-2,4-pyrimidinediamine] | 2120 nM |  |
| Cc1nnc(COc2ccc(Nc3nc(Nc4ccc(C)c(S(N)(=O)=O)c4)ncc3F)cc2)o1 [Compound I-279, N2-(3-Aminosulfonyl-4-methylphenyl)-5-fluoro-N4-[4-(5-methyl-1,3,4-oxadiazol-2-yl)methoxyphenyl]-2,4-pyrimidinediamine] | 167 nM |  |
| COc1ccc(Nc2ncc(F)c(Nc3ccc(Cc4ccncc4)cc3)n2)cc1S(N)(=O)=O [III-66, N2-(3-Aminosulfonyl-4-methoxyphenyl)-5-fluoro-N4-[4-(4-pyridinylmethyl)phenyl]-2,4-pyrimidinediamine] | 1150 nM |  |
| NS(=O)(=O)c1cccc(Nc2ncc(F)c(Nc3ccc(CN4CCOCC4)cc3)n2)c1 [III-103, N2-(3-Aminosulfonylphenyl)-5-fluoro-N4-(4-N-morpholinomethylenephenyl)-2,4-pyrimidinediamine] |  | 1060 nM |
| Cc1ccc(Nc2ncc(F)c(Nc3ccc(CN4CCS(=O)(=O)CC4)cc3)n2)cc1S(N)(=O)=O [III-111, N2-(3-Aminosulfonyl-4-methylphenyl)-5-fluoro-N4-{4-[(1,1-dioxothiomorpholin-4-yl-)methyl]phenyl}-2,4-pyrimidinediamine] |  | 926 nM |
| Cc1ccc(Nc2ncc(F)c(Nc3cccc(OC4CCN(C)CC4)c3)n2)cc1S(N)(=O)=O [II-2, N2-(3-Aminosulfonyl-4-methylphenyl)-5-fluoro-N4-{3-[(1-methylpiperidin-4-yl)oxy]phenyl}-2,4-pyrimidinediamine] | 1520 nM |  |
| NC(=O)OCCc1ccc(Nc2nc(Nc3cccc(S(N)(=O)=O)c3)ncc2F)cc1 [III-54, N4-{4-[2-(Aminocarbonyloxy)ethyl]phenyl}-N2-(3-aminosulfonylphenyl)-5-fluoro-2,4-pyrimidinediamine] | 140 nM |  |

| SMILES | IC50 [1] | IC50 [2] |
| --- | --- | --- |
| Cc1cnc(Nc2ccc(S(N)(=O)=O)cc2)nc1Nc1ccc(OCC(=O)N(C)C)c(Cl)c1 [Compound I-134, N2-(4-Aminosulfonylphenyl)-N4-(3-chloro-4-dimethylaminocarbonylmethoxyphenyl)-5-methyl-2,4-pyrimidinediamine] | 510 nM |  |
| C=CCNC(=O)COc1ccc(Nc2nc(Nc3ccc(C)c(S(N)(=O)=O)c3)ncc2F)cc1 [Compound I-159, N4-(4-Allylaminocarbonylmethoxyphenyl)-N2-(3-aminosulfonyl-4-methylphenyl)-5-fluoro-2,4-pyrimidinediamine] | 539 nM |  |
| Cc1ccc(Nc2nc(Nc3ccc(C)c(S(N)(=O)=O)c3)ncc2F)cc1OCCN1CCOCC1 [Compound I-204, N2-(3-Aminosulfonyl-4-methylphenyl)-5-fluoro-N4-[4-methyl-3-(2-morpholinoethyloxy)phenyl]2,4-pyrimidinediamine] | 1650 nM |  |
| CNC(=O)COc1ccc(Nc2nc(Nc3ccc(S(N)(=O)=O)cc3)ncc2C)cc1Cl [Compound I-149, N2-(4-Aminosulfonylphenyl)-N4-(3-chloro-4-methylaminocarbonylmethoxyphenyl)-5-methyl-2,4-pyrimidinediamine] | 197 nM |  |
| CN(C)C(=O)COc1ccc(Nc2nc(Nc3ccc(S(N)(=O)=O)cc3)ncc2F)cc1Cl [Compound I-131, N2-(4-Aminosulfonylphenyl)-N4-(3-chloro-4-dimethylaminocarbonylmethoxyphenyl)-5-fluoro-2,4-pyrimidinediamine] | 3780 nM |  |
| Cc1ccc(Nc2ncc(F)c(Nc3ccc(CCC#N)c(F)c3)n2)cc1S(N)(=O)=O [III-17, N2-(3-Aminosulfonyl-4-methylphenyl)-5-fluoro-N4-[4-(2-cyanoethyl)-3-fluorophenyl]-2,4-pyrimidinediamine] | 197 nM |  |
| Cc1ccc(Nc2ncc(F)c(Nc3ccc(OCc4cccnc4)cc3)n2)cc1S(N)(=O)=O [Compound I-178, N2-(3-Aminosulfonyl-4-methylphenyl)-5-fluoro-N4-[4-(3-pyridylmethoxy)phenyl]-2,4-pyrimidinediamine] | 29.3 nM |  |
| Cc1cnc(Nc2ccc(S(N)(=O)=O)cc2)nc1Nc1ccc(OCC(=O)N(C)C)c(F)c1 [Compound I-137, N2-(4-Aminosulfonylphenyl)-N4-(4-dimethylaminocarbonylmethoxy-3-fluorophenyl)-5-methyl-2,4-pyrimidinediamine] | 1100 nM |  |
| COc1ccc(Nc2ncc(F)c(Nc3ccc(CN4CCSCC4)cc3)n2)cc1S(N)(=O)=O [III-109, N2-(3-Aminosulfonyl-4-methyoxyphenyl)-5-fluoro-N4-(4-thiomorpholinomethylenephenyl)-2,4-pyrimidinediamine] |  | 252 nM |
| Cc1ccc(Nc2ncc(F)c(Nc3ccc(Cc4ccncc4)cc3)n2)cc1S(N)(=O)=O [III-74, N2-(3-Aminosulfonyl-4-methylphenyl)-5-fluoro-N4-[4-(4-pyridinylmethyl)phenyl]-2,4-pyrimidinediamine] | 175 nM |  |
| CNC(=O)COc1ccc(Nc2nc(Nc3cccc(S(N)(=O)=O)c3)ncc2C)cc1Cl [Compound I-150, N2-(3-Aminosulfonylphenyl)-N4-(3-chloro-4-methylaminocarbonylmethoxyphenyl)-5-methyl-2,4-pyrimidinediamine] | 68.1 nM |  |
| CNC(=O)COc1ccc(Nc2nc(Nc3ccc(C)c(S(N)(=O)=O)c3)ncc2C)cc1F [Compound I-156, N2-(3-Aminosulfonyl-4-methylphenyl)-N4-(3-fluoro-4-methylaminocarbonylmethoxyphenyl)-5-methyl-2,4-pyrimidinediamine] | 142 nM |  |
| Cc1ccc(Nc2ncc(F)c(Nc3ccc(CN4CCOCC4)cc3)n2)cc1S(N)(=O)=O [III-104, N2-(3-Aminosulfonyl-4-methylphenyl)-5-fluoro-N4-(4-N-morpholinomethylenephenyl)-2,4-pyrimidinediamine] |  | 1190 nM |
| Cc1ccc(Nc2ncc(F)c(Nc3ccc(OC4CCN(C)CC4)cc3)n2)cc1S(N)(=O)=O [II-7, N2-(3-Aminosulfonyl-4-methylphenyl)-5-fluoro-N4-{4-[(1-methylpiperidin-4-yl)oxy]phenyl}-2,4-pyrimidinediamine] | 522 nM |  |
| NS(=O)(=O)c1cccc(Nc2ncc(F)c(NCCc3ccc(-c4ccncc4)cc3)n2)c1 [III-76, N2-(3-Aminosulfonylphenyl)-5-fluoro-N4-[4-(4-pyridinyl)phenethyl]-2,4-pyrimidinediamine] | 135 nM |  |
| COc1cc(Nc2nc(Nc3ccc(C)c(S(N)(=O)=O)c3)ncc2F)ccc1OCC#N [Compound I-47, N2-(3-Aminosulfonyl-4-methylphenyl)-N4-(4-cyanomethoxy-3-methoxyphenyl)-5-fluoro-2,4-pyrimidinediamine] | 551 nM |  |
| CNS(=O)(=O)c1cc(Nc2ncc(F)c(Nc3ccc(-c4cnco4)cc3)n2)ccc1C [IV-7, 5-Fluoro-N2-[3-(N-methylaminosulfony)-4-methylphenyl]-N4-[4-(1,3-oxazol-5-yl)phenyl]-2,4-pyrimidinediamine] |  | 203 nM |
